Assays:
Histamine H3 receptor = Histamine H3 receptor (Cavia porcellus, UniProt Q9JI35); assay: (§1) Compound was evaluated for its binding affinity against Histamine H3 receptor of guinea pig brain membrane
[1] = target: Histamine H3 receptor (Cavia porcellus) (UniProt Q9JI35); assay: Compound was evaluated for its binding affinity against Histamine H3 receptor of guinea pig brain membrane, less then 50% inhibition when screened at 1 ug/mL
[2] = target: Histamine H3 receptor (Cavia porcellus) (UniProt Q9JI35); assay: Compound was evaluated for its inhibitory activity against Histamine H3 receptor of guinea pig brain membrane at a concentration of 1 ug/mL
[3] = Pharmacokinetic parameter area under curve (AUC) was measured after administration into rat at 10 mg/kg; assay type: ADME, organism-based; design: dose 10 mg/kg; settings: in vivo
[4] = Compound at a dose 3 mg/kg was administered to monkey and was evaluated for half life after administration into monkey at 3 mg/kg; assay type: ADME, organism-based; settings: cercopithecidae, in vivo
[5] = Compound at a dose 10 mg/kg was administered to rat and was evaluated for bioavailability after administration into rat at 10 mg/kg; settings: in vivo, read-out: Bioavailabiility
[6] = Antagonistic activity towards dopamine uptake was calculated; assay type: functional
Cercopithecidae = assay: Pharmacokinetic parameter area under curve (AUC) was measured after administration into monkey at 3 mg/kg; settings: in vivo
[7] = Pharmacokinetic parameter Cmax was measured after administration into monkey at 3 mg/kg; assay type: ADME, organism-based; design: dose 3 mg/kg; settings: cercopithecidae, in vivo, read-out: AUC
[8] = Pharmacokinetic parameter Cmax was measured after administration into rat at 10 mg/kg; assay type: ADME, organism-based; design: dose 10 mg/kg; settings: in vivo
[9] = target: T1, Alpha-2A adrenergic receptor (Homo sapiens) (UniProt P08913); assay: Antagonistic activity towards Alpha-2A adrenergic receptor was calculated; assay type: functional
T1 sequence (whole entry): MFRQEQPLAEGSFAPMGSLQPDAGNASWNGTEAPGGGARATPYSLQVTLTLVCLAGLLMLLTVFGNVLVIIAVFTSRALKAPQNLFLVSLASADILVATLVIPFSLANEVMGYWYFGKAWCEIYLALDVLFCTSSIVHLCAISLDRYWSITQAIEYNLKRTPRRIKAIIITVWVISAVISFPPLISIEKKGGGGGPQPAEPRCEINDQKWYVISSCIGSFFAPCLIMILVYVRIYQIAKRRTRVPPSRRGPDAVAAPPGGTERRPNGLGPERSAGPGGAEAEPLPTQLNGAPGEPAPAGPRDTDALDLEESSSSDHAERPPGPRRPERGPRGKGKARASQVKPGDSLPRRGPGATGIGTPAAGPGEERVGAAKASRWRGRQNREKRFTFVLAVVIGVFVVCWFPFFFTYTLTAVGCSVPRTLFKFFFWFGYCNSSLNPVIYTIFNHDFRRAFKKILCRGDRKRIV

[10] = target: Histamine H3 receptor (Cavia porcellus) (UniProt Q9JI35); assay: as §1; settings: concentration not given here
[11] = target: Histamine H3 receptor (Cavia porcellus) (UniProt Q9JI35); assay: Compound was evaluated for its binding affinity against Histamine H3 receptor of guinea pig brain membrane less then 50% inhibition when screened at 1 ug/mL
Cavia porcellus = assay: Effective dose was reported after intravenous administration to guinea pig; assay type: functional

Histamine H3 receptor, sequence (Q9JI35 whole entry): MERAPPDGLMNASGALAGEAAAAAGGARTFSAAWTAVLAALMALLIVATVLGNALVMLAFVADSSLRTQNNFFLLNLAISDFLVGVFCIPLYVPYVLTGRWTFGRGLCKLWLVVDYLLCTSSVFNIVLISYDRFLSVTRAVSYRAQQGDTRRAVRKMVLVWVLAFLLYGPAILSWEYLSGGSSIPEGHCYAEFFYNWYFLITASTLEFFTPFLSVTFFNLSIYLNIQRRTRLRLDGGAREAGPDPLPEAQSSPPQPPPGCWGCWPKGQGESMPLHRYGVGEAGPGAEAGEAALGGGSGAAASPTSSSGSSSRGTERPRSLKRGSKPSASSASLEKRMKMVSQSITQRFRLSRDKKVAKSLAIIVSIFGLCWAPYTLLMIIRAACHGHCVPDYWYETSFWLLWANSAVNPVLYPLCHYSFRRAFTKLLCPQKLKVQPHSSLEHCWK
Histamine H3 receptor (Cavia porcellus), sequence (Q9JI35 whole entry): as above

Compound `O=C(NCCc1ccccc1Cl)NCc1ccc(Cc2c[nH]cn2)cc1` has a Ki (Histamine H3 receptor) of 0.43 µM.

With `NC(=O)NCc1ccc(Cc2c[nH]cn2)cc1` the inhibition [1] was less than 50%.

In the case of `CN(Cc1ccc(Cc2cnc[nH]2)cc1)C(=O)N(C)c1cc(Cl)cc(Cl)c1`, the Ki (Histamine H3 receptor) is reported as 0.37 µM.

`O=C(Nc1ccc(Cc2c[nH]cn2)cc1)Nc1cc(Cl)cc(Cl)c1` gave an inhibition [2] of 36%.

Compound `O=C(NCc1ccc(Cc2c[nH]cn2)cc1)Nc1cc(Cl)cc(Cl)c1` has an AUC [3] of 18.1 µg·h/mL, a half-life [4] of 4.4 h and a bioavailability [5] of 44%. The Concentration [6] was 805 nM, the AUC (Cercopithecidae) was 12.6 µg·h/mL and the Cmax [7] was 1.7 µg/mL. It also gave a Cmax [8] of 1.7 µg/mL and a Concentration [9] of 207 nM.

With `O=C(NCc1ccc(Cc2c[nH]cn2)cc1)Nc1cc(Cl)nc(Cl)c1` the Ki (Histamine H3 receptor) was 0.003 µM.

Compound `O=C(NCc1ccc(Cc2c[nH]cn2)cc1)Nc1cccnc1` has a Ki (Histamine H3 receptor) of 0.27 µM.

Compound `O=C(NCc1ccc(Cc2c[nH]cn2)cc1)Nc1cnccn1` has an inhibition [10] of less than 50%.

`O=C(NCc1ccccc1)NCc1ccc(Cc2c[nH]cn2)cc1` showed an inhibition [11] of less than 50%.

In the case of `O=C(Nc1ccccc1)OCc1ccc(Cc2c[nH]cn2)cc1`, the Ki (Histamine H3 receptor) is reported as 0.037 µM.

Compound `N=C(NCc1ccc(Cl)cc1)c1ccc(Cc2c[nH]cn2)cc1` has an ED50 (Cavia porcellus) of 0.3 mg/kg.

`O=C(Nc1ccc(Cl)cc1)OCc1ccc(Cc2c[nH]cn2)cc1` showed a Ki (Histamine H3 receptor) of 0.025 µM.

In the case of `O=C(NCc1cccc(Cc2c[nH]cn2)c1)Nc1cc(Cl)cc(Cl)c1`, the inhibition [2] is reported as 33%.

In the case of `O=C(NCc1ccc(Cc2c[nH]cn2)cc1)NCc1cc(C(F)(F)F)cc(C(F)(F)F)c1`, the Ki (Histamine H3 receptor) is reported as 0.09 µM.

From ChEMBL document CHEMBL1135250, “Identification of a novel, orally bioavailable histamine H(3) receptor antagonist based on the 4-benzyl-(1H-imidazol-4-yl) template” (Bioorg Med Chem Lett, 2002)
